#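 Following 48 hours of exposure in 96-well plates, responses at five concentrations were used to interpolate endpoints linearly. The concentration for full growth arrest is given as TGI.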
# Tests used:
# Experiment in all cases: NCI tumour cell line growth inhibition, 48 h
# NCI-H23 lung = tested on: NCI-H23 lung
# RPMI-8226 leukemia = tested on: RPMI-8226 leukemia
# SK-MEL-5 melanoma = tested on: SK-MEL-5 melanoma
# NCI/ADR-RES ovarian = tested on: NCI/ADR-RES ovarian
# SF-539 CNS = tested on: SF-539 CNS
# SNB-75 CNS = tested on: SNB-75 CNS
# MALME-3M melanoma = tested on: MALME-3M melanoma
# EKVX NSCLC = tested on: EKVX NSCLC
# HOP-62 NSCLC = tested on: HOP-62 NSCLC
# OVCAR-5 ovarian = tested on: OVCAR-5 ovarian
# UACC-62 melanoma = tested on: UACC-62 melanoma
# T-47D breast = tested on: T-47D breast
# HCT-15 colon = tested on: HCT-15 colon
# M14 melanoma = tested on: M14 melanoma
# NCI-H226 lung = tested on: NCI-H226 lung
# NCI-H460 lung = tested on: NCI-H460 lung
# OVCAR-8 ovarian = tested on: OVCAR-8 ovarian
# MDA-MB-435 = tested on: MDA-MB-435
# MDA-MB-231 breast = tested on: MDA-MB-231 breast
# MDA-N = tested on: MDA-N
# SK-OV-3 ovarian = tested on: SK-OV-3 ovarian
# 786-0 renal = tested on: 786-0 renal
# SK-MEL-2 melanoma = tested on: SK-MEL-2 melanoma
# PC-3 prostate = tested on: PC-3 prostate
# HCT-116 colon = tested on: HCT-116 colon
# SK-MEL-28 melanoma = tested on: SK-MEL-28 melanoma
# TK-10 renal = tested on: TK-10 renal
# SF-295 CNS = tested on: SF-295 CNS
# LOX IMVI melanoma = tested on: LOX IMVI melanoma
# KM12 colon = tested on: KM12 colon
# MOLT-4 leukemia = tested on: MOLT-4 leukemia
# HT29 colon = tested on: HT29 colon
# MCF7 breast = tested on: MCF7 breast
# A549 NSCLC = tested on: A549 NSCLC
# HCC-2998 colon = tested on: HCC-2998 colon
# RXF 393 renal = tested on: RXF 393 renal
# K-562 leukemia = tested on: K-562 leukemia
# HOP-92 NSCLC = tested on: HOP-92 NSCLC
# OVCAR-4 ovarian = tested on: OVCAR-4 ovarian
# U251 CNS = tested on: U251 CNS
# OVCAR-3 ovarian = tested on: OVCAR-3 ovarian
# BT-549 breast = tested on: BT-549 breast
# SN12C renal = tested on: SN12C renal
# COLO 205 colon = tested on: COLO 205 colon
# A498 renal = tested on: A498 renal
# CCRF-CEM leukemia = tested on: CCRF-CEM leukemia
# CAKI-1 renal = tested on: CAKI-1 renal
# UACC-257 melanoma = tested on: UACC-257 melanoma
# IGROV1 ovarian = tested on: IGROV1 ovarian
# SF-268 CNS = tested on: SF-268 CNS
# SW-620 colon = tested on: SW-620 colon
# DU-145 prostate = tested on: DU-145 prostate
# HL-60(TB) leukemia = tested on: HL-60(TB) leukemia
# HS 578T breast = tested on: HS 578T breast
# UO-31 renal = tested on: UO-31 renal
# SR leukemia = tested on: SR leukemia
# NCI-H522 lung = tested on: NCI-H522 lung
# ACHN renal = tested on: ACHN renal
structure (smiles),measurement,setting,value
COc1ccc(Nc2nc3ccc(C(F)(F)F)cc3nc2C(=O)O)cc1,TGI,NCI-H23 lung,93.3 µM
same,TGI,RPMI-8226 leukemia,66.5 µM
same,TGI,SK-MEL-5 melanoma,> 100 µM
same,TGI,NCI/ADR-RES ovarian,> 100 µM
same,TGI,SF-539 CNS,75.9 µM
same,TGI,SNB-75 CNS,78.6 µM
same,TGI,MALME-3M melanoma,> 100 µM
same,TGI,EKVX NSCLC,> 100 µM
same,TGI,HOP-62 NSCLC,> 100 µM
same,TGI,OVCAR-5 ovarian,84.9 µM
same,TGI,UACC-62 melanoma,67.3 µM
same,TGI,T-47D breast,> 100 µM
same,TGI,HCT-15 colon,> 100 µM
same,TGI,M14 melanoma,> 100 µM
same,TGI,NCI-H226 lung,> 100 µM
same,TGI,NCI-H460 lung,83.7 µM
same,TGI,OVCAR-8 ovarian,> 100 µM
same,TGI,MDA-MB-435,> 100 µM
same,TGI,MDA-MB-231 breast,> 100 µM
same,TGI,MDA-N,> 100 µM
same,TGI,SK-OV-3 ovarian,71.5 µM
same,TGI,786-0 renal,> 100 µM
same,TGI,SK-MEL-2 melanoma,> 100 µM
same,TGI,PC-3 prostate,92.4 µM
same,TGI,HCT-116 colon,> 100 µM
same,TGI,SK-MEL-28 melanoma,> 100 µM
same,TGI,TK-10 renal,> 100 µM
same,TGI,SF-295 CNS,89.4 µM
same,TGI,LOX IMVI melanoma,> 100 µM
same,TGI,KM12 colon,70.9 µM
same,TGI,MOLT-4 leukemia,98.6 µM
same,TGI,HT29 colon,> 100 µM
same,TGI,MCF7 breast,> 100 µM
same,TGI,A549 NSCLC,> 100 µM
same,TGI,HCC-2998 colon,50 µM
same,TGI,RXF 393 renal,62.6 µM
same,TGI,K-562 leukemia,> 100 µM
same,TGI,HOP-92 NSCLC,92 µM
same,TGI,OVCAR-4 ovarian,> 100 µM
same,TGI,U251 CNS,> 100 µM
same,TGI,OVCAR-3 ovarian,47.4 µM
same,TGI,BT-549 breast,49.4 µM
same,TGI,SN12C renal,> 100 µM
same,TGI,COLO 205 colon,> 100 µM
same,TGI,A498 renal,57.2 µM
same,TGI,CCRF-CEM leukemia,63.5 µM
same,TGI,CAKI-1 renal,> 100 µM
same,TGI,UACC-257 melanoma,96.7 µM
same,TGI,IGROV1 ovarian,39.5 µM
same,TGI,SF-268 CNS,> 100 µM
same,TGI,SW-620 colon,> 100 µM
same,TGI,DU-145 prostate,> 100 µM
COc1cc([N+](=O)[O-])ccc1N1C(=O)C2c3[nH]c4ccccc4c3C3CCC(C(C)(C)C)CC3C2C1=O (stereo not drawn),TGI,NCI-H23 lung,> 100 µM
same,TGI,RPMI-8226 leukemia,> 100 µM
same,TGI,SK-MEL-5 melanoma,> 100 µM
same,TGI,HL-60(TB) leukemia,> 100 µM
same,TGI,NCI/ADR-RES ovarian,> 100 µM
same,TGI,SF-539 CNS,> 100 µM
same,TGI,MALME-3M melanoma,> 100 µM
same,TGI,EKVX NSCLC,> 100 µM
same,TGI,HOP-62 NSCLC,81.2 µM
same,TGI,OVCAR-5 ovarian,> 100 µM
same,TGI,UACC-62 melanoma,> 100 µM
same,TGI,HCT-15 colon,> 100 µM
same,TGI,M14 melanoma,40.5 µM
same,TGI,NCI-H226 lung,> 100 µM
same,TGI,NCI-H460 lung,> 100 µM
same,TGI,OVCAR-8 ovarian,> 100 µM
same,TGI,MDA-MB-435,> 100 µM
same,TGI,MDA-MB-231 breast,75.5 µM
same,TGI,HS 578T breast,43.4 µM
same,TGI,MDA-N,> 100 µM
same,TGI,SK-OV-3 ovarian,> 100 µM
same,TGI,UO-31 renal,> 100 µM
same,TGI,SR leukemia,> 100 µM
same,TGI,SK-MEL-2 melanoma,> 100 µM
same,TGI,PC-3 prostate,> 100 µM
same,TGI,HCT-116 colon,> 100 µM
same,TGI,NCI-H522 lung,> 100 µM
same,TGI,SK-MEL-28 melanoma,34.7 µM
same,TGI,ACHN renal,> 100 µM
same,TGI,TK-10 renal,> 100 µM
same,TGI,LOX IMVI melanoma,> 100 µM
same,TGI,KM12 colon,> 100 µM
same,TGI,MOLT-4 leukemia,> 100 µM
same,TGI,HT29 colon,> 100 µM
same,TGI,MCF7 breast,> 100 µM
same,TGI,A549 NSCLC,> 100 µM
same,TGI,HCC-2998 colon,> 100 µM
same,TGI,HOP-92 NSCLC,> 100 µM
same,TGI,OVCAR-4 ovarian,> 100 µM
same,TGI,U251 CNS,25.4 µM
same,TGI,OVCAR-3 ovarian,> 100 µM
same,TGI,BT-549 breast,> 100 µM
same,TGI,SN12C renal,> 100 µM
same,TGI,COLO 205 colon,> 100 µM
same,TGI,A498 renal,> 100 µM
same,TGI,CCRF-CEM leukemia,> 100 µM
same,TGI,CAKI-1 renal,24.9 µM
same,TGI,UACC-257 melanoma,> 100 µM
same,TGI,IGROV1 ovarian,> 100 µM
same,TGI,SW-620 colon,> 100 µM
same,TGI,DU-145 prostate,> 100 µM

# Source: PubChem BioAssay (NCI)
